pIC50: −log10 of the molar value.
Target: T1, CD73 (Calu-6 cells) (Homo sapiens, UniProt P21589)
T1 construct: endogenous in cells; host or cells: Calu-6 cells
T1 sequence (P21589 27-549): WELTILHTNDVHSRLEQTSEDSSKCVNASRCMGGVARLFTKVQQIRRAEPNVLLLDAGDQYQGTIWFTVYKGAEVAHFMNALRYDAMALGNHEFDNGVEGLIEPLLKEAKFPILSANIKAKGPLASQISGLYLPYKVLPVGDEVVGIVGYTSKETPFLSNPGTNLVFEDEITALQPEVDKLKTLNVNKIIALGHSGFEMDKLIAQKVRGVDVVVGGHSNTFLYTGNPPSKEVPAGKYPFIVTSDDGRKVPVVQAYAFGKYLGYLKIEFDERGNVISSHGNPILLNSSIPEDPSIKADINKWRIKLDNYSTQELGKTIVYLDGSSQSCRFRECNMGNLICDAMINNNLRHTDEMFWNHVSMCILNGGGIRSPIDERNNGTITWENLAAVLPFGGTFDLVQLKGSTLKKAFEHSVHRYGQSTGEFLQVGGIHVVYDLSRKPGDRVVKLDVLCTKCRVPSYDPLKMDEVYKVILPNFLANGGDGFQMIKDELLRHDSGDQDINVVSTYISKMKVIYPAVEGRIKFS
Test: Enzymatic activity detection at the cellular level (Calu-6 cells, AMP substrate, Cell-titer Glo luminescence)
Assay type: cell-based
Conditions: enzymatic IC50 at the Calu-6 cell level, 30 min pre-incubation, 120 min at 37° C.
Description: The Calu-6 cells were digested and re-suspended using TM buffer (25 mM Tris, 5 mM MgCl2, pH 7.5). Calu-6 cell suspension was seeded into 96 well cell culture plate, and the number of cells per well was 2.5×10^4, adding volume of 100 μL/well. Compound solution with gradient concentration was prepared by TM buffer, and 50 μL DMSO solution with different concentration was added into each pore cell. […] Pre-incubated in a shaker at 37° C. for 30 min. Each well was added with 50 μL 800 μM AMP solution. The shaker at 37° C. for 120 min was continued to incubate, then the 96-well plates were centrifuged and 50 μL supernatant was transferred to the new 96-well plates. […] The luminescence value was read by the multi-function enzymatic reader and converted into the inhibition percentage: Inhibition percentage=(1−reading/Max)*100. The “maximum value” was DMSO control. IC50 values were obtained by curve fitting with GraphPad Prism software.

| SMILES | pIC50 |
| --- | --- |
| C=C[C@H]1C[C@@H]1c1cc(-c2c[nH]c(=O)[nH]c2=O)nnc1Cl [Compound 13, 5-(6-chloro-5-((1S,2R)-2-vinylcyclopropyl)pyridazin-3-yl)pyrimidine-2,4(1H,3H)-dione] | 8.07 |
| Cc1nnc(-c2c[nH]c(=O)[nH]c2=O)cc1[C@H]1C[C@@H]1C#Cc1ccccc1 [Compound 41, 5-(6-methyl-5-((1S,2S)-2-(phenylethynyl)cyclopropyl)pyridazin-3-yl)pyrimidine-2,4(1H,3H)-dione] | 8.12 |
| O=c1[nH]cc(-c2cc([C@H]3C[C@@H]3C#Cc3ccc(Cl)cc3)c(Cl)nn2)c(=O)[nH]1 [Compound 47] | 8.11 |
| COc1nnc(-c2c[nH]c(=O)[nH]c2=O)cc1[C@H]1C[C@@H]1C#Cc1ccc(C#N)cc1 [Compound 50] | 7.90 |
| COc1nnc(-c2c[nH]c(=O)[nH]c2=O)cc1[C@H]1C[C@@H]1C#Cc1ccccn1 [Compound 52] | 8.24 |
| N#Cc1nnc(-c2c[nH]c(=O)[nH]c2=O)cc1[C@H]1C[C@@H]1C#Cc1ccccc1 [Compound 54] | 8.09 |
| N#Cc1nnc(-c2c[nH]c(=O)[nH]c2=O)cc1[C@H]1C[C@@H]1C#Cc1ccccn1 [Compound 56] | 7.71 |
| O=c1[nH]cc(-c2cc([C@H]3C[C@@H]3c3ccccc3)cnn2)c(=O)[nH]1 [Compound 59, 5-(5-((1S,2S)-2-phenylcyclopropyl)pyridazin-3-yl)pyrimidine-2,4(1H,3H)-dione] | 8.00 |
| O=c1[nH]cc(-c2cc([C@H]3C[C@@H]3c3nc4ccccc4[nH]3)c(Cl)nn2)c(=O)[nH]1 [Compound 60, 5-(5-((1S,2S)-2-(1H-benzo[d]imidazol-2-yl)cyclopropyl)-6-chloropyridazin-3-yl)pyrimidine-2, 4(1H,3H)-dione] | 7.63 |
| Cc1ccc(C2CC2c2cc(-c3c[nH]c(=O)[nH]c3=O)nnc2Cl)c(C)c1 (centres unmarked) [Compound 61] | 7.72 |
| Cc1ccc(C2CC2c2cc(-c3c[nH]c(=O)[nH]c3=O)nnc2Cl)cc1C (centres unmarked) [Compound 62] | 8.25 |
| Cc1cc(C)cc(C2CC2c2cc(-c3c[nH]c(=O)[nH]c3=O)nnc2Cl)c1 (centres unmarked) [Compound 63] | 7.72 |
| CC(C)c1ccc(C2CC2c2cc(-c3c[nH]c(=O)[nH]c3=O)nnc2Cl)cc1 (centres unmarked) [Compound 64] | 7.65 |
| O=c1[nH]cc(-c2cc(C3CC3c3cccc(C(F)(F)F)c3)c(Cl)nn2)c(=O)[nH]1 (centres unmarked) [Compound 67] | 8.14 |
| O=c1[nH]cc(-c2cc(C3CC3c3ccc(C(F)(F)F)c(F)c3)c(Cl)nn2)c(=O)[nH]1 (centres unmarked) [Compound 68] | 7.82 |
| O=c1[nH]cc(-c2cc(C3CC3c3ccc(F)c(C(F)(F)F)c3)c(Cl)nn2)c(=O)[nH]1 (centres unmarked) [Compound 69] | 7.87 |
| O=c1[nH]cc(-c2cc(C3CC3c3cccc(F)c3F)c(Cl)nn2)c(=O)[nH]1 (centres unmarked) [Compound 70] | 8.15 |
| O=c1[nH]cc(-c2cc(C3CC3c3cc(F)c(F)cc3F)c(Cl)nn2)c(=O)[nH]1 (centres unmarked) [Compound 73] | 8.23 |
| O=C(O)c1cccc(C2CC2c2cc(-c3c[nH]c(=O)[nH]c3=O)nnc2Cl)c1 (centres unmarked) [Compound 75] | 7.49 |
| O=c1[nH]cc(-c2cc(C3CC3c3ccc(-c4ccccc4)cc3)c(Cl)nn2)c(=O)[nH]1 (centres unmarked) [Compound 76] | 7.28 |
| COc1nnc(-c2c[nH]c(=O)[nH]c2=O)cc1C1CC1c1ccc(C#N)cc1 (centres unmarked) [Compound 77, 4-(2-(6-(2,4-dioxo-1,2,3,4-tetrahydropyrimidin-5-yl)-3-methoxypyridazin-4-yl)cyclopropyl)benzonitrile] | 8.14 |
| N#Cc1ccc(C2CC2c2cc(-c3c[nH]c(=O)[nH]c3=O)nnc2C#N)cc1 (centres unmarked) [Compound 78, 4-(2-(4-cyanophenyl)cyclopropyl)-6-(2,4-dioxo-1,2,3,4-tetrahydropyrimidin-5-yl)pyridazine-3-carbonitrile] | 8.07 |
| Cc1nnc(-c2c[nH]c(=O)[nH]c2=O)cc1C1CC1Cc1ccccc1 (centres unmarked) [Compound D2, reference compound] | 6.94 |
| O=c1[nH]cc(-c2cc([C@@H]3C[C@H]3c3ccccc3)c(Cl)nn2)c(=O)[nH]1 [Compound D3, reference compound] | 5.84 |

Next, values leading:

| pIC50 | SMILES |
| --- | --- |
| 8.43 | N#Cc1ccc(C#C[C@H]2C[C@@H]2c2cc(-c3c[nH]c(=O)[nH]c3=O)nnc2Cl)nc1 [Compound 38, 6-(((1S,2S)-2-(3-chloro-6-(2,4-dioxo-1,2,3,4-tetrahydropyrimidin-5-yl)pyridazin-4-yl)cyclopropyl)ethynyl)nicotinonitrile] |
| 8.60 | C=C[C@H]1C[C@@H]1c1cc(-c2c[nH]c(=O)[nH]c2=O)nnc1OC [Compound 39, 5-(6-methoxy-S-((1S,2R)-2-vinylcyclopropyl)pyridazin-3-yl)pyrimidine-2,4(1H,3H)-dione] |
| 8.36 | O=c1[nH]cc(-c2cc([C@H]3C[C@@H]3C#Cc3cccnc3)c(Cl)nn2)c(=O)[nH]1 [Compound 42] |
| 8.43 | O=c1[nH]cc(-c2cc([C@H]3C[C@@H]3C#Cc3ccccn3)c(Cl)nn2)c(=O)[nH]1 [Compound 43] |
| 8.51 | COc1ccc(C#C[C@H]2C[C@@H]2c2cc(-c3c[nH]c(=O)[nH]c3=O)nnc2Cl)cc1 [Compound 44] |
| 8.82 | N#Cc1ccc(C#C[C@H]2C[C@@H]2c2cc(-c3c[nH]c(=O)[nH]c3=O)nnc2Cl)cc1 [Compound 45] |
| 8.36 | N#Cc1ccccc1C#C[C@H]1C[C@@H]1c1cc(-c2c[nH]c(=O)[nH]c2=O)nnc1Cl [Compound 46] |
| 8.42 | O=c1[nH]cc(-c2cc([C@H]3C[C@@H]3C#Cc3ccc(F)cc3)c(Cl)nn2)c(=O)[nH]1 [Compound 48] |
| 8.37 | COc1nnc(-c2c[nH]c(=O)[nH]c2=O)cc1[C@H]1C[C@@H]1C#Cc1cccc(C#N)c1 [Compound 51] |
| 8.62 | COc1nnc(-c2c[nH]c(=O)[nH]c2=O)cc1[C@H]1C[C@@H]1C#Cc1cccnc1 [Compound 53] |
| 8.25 | N#Cc1ccc(C#C[C@H]2C[C@@H]2c2cc(-c3c[nH]c(=O)[nH]c3=O)nnc2C#N)cc1 [Compound 55] |
| 8.89 | O=c1[nH]cc(-c2cc([C@H]3C[C@@H]3c3ccccc3)c(Cl)nn2)c(=O)[nH]1 [Compound 57, 5-(6-chloro-5-((S,2S)-2-phenylcyclopropyl)pyridazin-3-yl)pyrimidine-2,4(1H,3H)-dione] |
| 8.33 | Cc1ccc(C2CC2c2cc(-c3c[nH]c(=O)[nH]c3=O)nnc2Cl)cc1F (centres unmarked) [Compound 65] |
| 8.41 | O=c1[nH]cc(-c2cc(C3CC3c3ccc(C(F)(F)F)cc3)c(Cl)nn2)c(=O)[nH]1 (centres unmarked) [Compound 66] |
| 8.34 | O=c1[nH]cc(-c2cc(C3CC3c3ccc(F)cc3F)c(Cl)nn2)c(=O)[nH]1 (centres unmarked) [Compound 71] |
| 8.31 | O=c1[nH]cc(-c2cc(C3CC3c3c(F)cc(F)cc3F)c(Cl)nn2)c(=O)[nH]1 (centres unmarked) [Compound 72] |
| 8.57 | O=Cc1ccc(C2CC2c2cc(-c3c[nH]c(=O)[nH]c3=O)nnc2Cl)cc1 (centres unmarked) [Compound 74] |

System: not listed separately
Test: Pharmacokinetic evaluation in mice after intragastric administration (plasma concentration by LC/MS/MS)
Assay type: in vivo
Conditions: mouse, Balb/C female mice, single PO 10 mg/kg
Description: LC/MS/MS method was used to determine the plasma concentration of the embodiment compound at different time after intragastric administration in mice. Study the pharmacokinetic behavior of the compound in mice and evaluate its pharmacokinetic characteristics.
Methods: A single PK study (PO, 10 mg/kg) was performed on healthy Balb/C female mice (about 20 g) purchased from Beijing Vital River Laboratory Animal Technology Co., Ltd. About 1 hour before administration, a certain amount of drug was weighed and added with 5% DMSO and 95% hydroxypropyl betascyclodextrin (HP-β-CD) solution to form a colorless and clear solution. HP-β-CD solution is a 20% HP-β-CD solution prepared by adding HP-p-CD powder into 0.9% normal saline. Intragastric administration was performed at the dosage volume of 10 mL/kg, and blood was collected through the orbital venous plexus of mice. The blood collection time points were as follows: At 0.25, 0.5, 1.0, 2.0, 4.0, 7.0 and 24.0 hours before and after drug administration, 100 uL whole blood to K2EDTA anticoagulant tubes were taken at each time point, and the collected whole blood samples were centrifuged at 4000 rpm for 10 min. The plasma was separated and stored in the refrigerator at −80° C.
The above plasma samples were added to the pure acetonitrile solution containing the inner target for protein precipitation pre-treatment, centrifugation was performed at 10000 rpm for 10 min, and the supernatant was taken, mixed with water 1:1, and 10 μL to LC-MS/MS was used for detection. The linear range of compounds detected in plasma samples was 1-1000 ng/mL, and the data results were as follows:
The compound of the invention has good pharmacokinetic absorption and obvious pharmacokinetic advantages.

| AUC [ng·h/mL] | Cmax [ng/mL] | Tmax [min] | SMILES |
| --- | --- | --- | --- |
| 16900 | 10400 | 30 | C=C[C@H]1C[C@@H]1c1cc(-c2c[nH]c(=O)[nH]c2=O)nnc1Cl [Compound 13, 5-(6-chloro-5-((1S,2R)-2-vinylcyclopropyl)pyridazin-3-yl)pyrimidine-2,4(1H,3H)-dione] |
| 10700 | 5410 | 30 | O=c1[nH]cc(-c2cc([C@H]3C[C@@H]3c3ccccc3)c(Cl)nn2)c(=O)[nH]1 [Compound 57, 5-(6-chloro-5-((S,2S)-2-phenylcyclopropyl)pyridazin-3-yl)pyrimidine-2,4(1H,3H)-dione] |
| 677 | 547 | 30 | Cc1nnc(-c2c[nH]c(=O)[nH]c2=O)cc1[C@H]1C[C@@H]1C(C)C [Compound D1, reference compound] |

From patent publication US20230321100A1, “CD73 INHIBITOR AND APPLICATION THEREOF IN MEDICINE” (BETTA PHARMACEUTICALS CO., LTD, priority 2020, published 2023)
